According to paper PMC11847541, “Liver fatty acid binding protein FABP1 transfers substrates to cytochrome P450 4A11 for catalysis” (The Journal of Biological Chemistry, 2025):

Assays:
[1] = biological target: T1, P450 4A11 (Homo sapiens, UniProt Q02928); experiment: Stopped-flow kinetics of palmitate binding to P450 4A11 (type I shift); set-up: made in house; host or cells: E. coli; conditions: P450 4A11 1 μM, palmitate 5 μM; read-out: kon to P450 4A11 (k1)
T1 sequence (Q02928 5-519): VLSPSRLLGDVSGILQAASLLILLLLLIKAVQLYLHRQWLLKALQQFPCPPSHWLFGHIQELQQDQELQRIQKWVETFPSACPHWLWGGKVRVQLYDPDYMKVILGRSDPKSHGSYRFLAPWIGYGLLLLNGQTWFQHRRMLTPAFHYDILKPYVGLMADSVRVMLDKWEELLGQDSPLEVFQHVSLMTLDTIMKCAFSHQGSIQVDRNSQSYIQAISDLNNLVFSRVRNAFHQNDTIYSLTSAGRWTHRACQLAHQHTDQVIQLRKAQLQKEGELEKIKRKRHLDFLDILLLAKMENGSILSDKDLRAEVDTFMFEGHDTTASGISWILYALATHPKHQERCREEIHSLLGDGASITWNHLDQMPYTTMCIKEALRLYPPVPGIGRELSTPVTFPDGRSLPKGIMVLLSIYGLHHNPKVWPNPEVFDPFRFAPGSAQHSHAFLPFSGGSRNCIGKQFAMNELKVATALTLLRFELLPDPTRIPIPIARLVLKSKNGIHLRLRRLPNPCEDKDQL
Description: To assess the rates of lipid binding to P450 4A11 (k1), type I spectral shift (from ∼420 nm to ∼390 nm, described previously) was monitored after rapid mixing of P450 and palmitate (Fig. 9A, magenta [substrate free], blue [substrate bound]). When P450 4A11 (1 μM) was mixed with palmitate (5 μM), slow binding kinetics were observed (Fig. 9B). Single exponential fitting of the data yielded a binding rate of 0.21 ± 0.03 s^−1 (kon = k1 = 4.2 ± 0.6 × 10^4 M^−1 s^−1).
Figure 9 Kinetics of fatty acid binding to P450 4A11.A, spectra were collected with 1 μM P450 4A11 (purple line) to which 5 μM palmitate (blue line) and 50 μM ketoconazole (red line) were successively added to induce characteristic P450 “type I” and “type II” spectral shifts, respectively. B, P450 4A11 (1 μM) was rapidly mixed with palmitate (5 μM), and the P450 blue shift (A) was monitored and fit to an exponential equation (blue line) yielding a kon value of 0.21 ± 0.03 s^−1. C, 16-OH palmitate (4 μM) and D, palmitate (10 μM) were preincubated with P450 4A11 (2 μM) and rapidly mixed with ketoconazole (100 μM), and the P450 red shift (part A) was monitored and fit to biexponential equations (red lines). […]
On-rates (kon) to P450 4A11 with lipids were determined by monitoring the hypsochromic (“blue,” “type I”) shift in the heme Soret (A418 [hexacoordinated] → A390 [pentacoordinated]) as substrate binds. […]

[2] = set-up: method as in PMID 2335507; conditions: cited from earlier work
[3] = biological target: T2, P450 4A11 (Homo sapiens, UniProt Q02928); experiment: Fluorescence titration of Alexa-FABP1 with P450 4A11; format: binding; conditions: 10 mM potassium phosphate pH 7.4, quadratic fit
T2 construct: made in house; host or cells: E. coli
T2 sequence (Q02928 5-519): T1 sequence (Q02928 5-519)
T2 sequence (P07148 with tags, fused parts or gaps partner): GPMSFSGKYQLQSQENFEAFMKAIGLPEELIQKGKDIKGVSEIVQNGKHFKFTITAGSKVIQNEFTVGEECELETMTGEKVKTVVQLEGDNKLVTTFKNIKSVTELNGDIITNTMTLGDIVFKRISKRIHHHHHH
Description: The Alexa-FABP1 construct was tested for P450 binding in a fluorescence titration with P450 4A11.
Figure 10 Binding of Alexa-FABP1 to P450 4A11.A, equilibrium binding titration of Alexa-FABP1 (25 nM) with P450 4A11 as the titrant (0–50 nM). Titrations were performed in 10 mM (closed circles) or 100 mM (open circles) potassium phosphate buffer (pH 7.4). A control reaction was performed with P450 101A1 (P450cam) in 100 mM KPhos (open squares). The change in fluorescence upon protein–protein binding was normalized to the corresponding change in a buffer control. […] Each data point corresponds to one independent replicate, ≥3 biological replicates were collected to confirm the effect. B, kinetics of binding of Alexa-FABP1 (0.125 μM) and P450 4A11 (0.125 μM). Six traces were averaged, and the data were fit to a single exponential curve (in red). The extracted binding rate was 2.0 ± 0.2 s^−1. FABP1, fatty acid binding protein.
Alexa-FABP1 (25 nM [estimated by an asborbance at 280 nm prior to conjugation reaction, accounting for dilution, and assuming no protein loss during the reaction]) was prepared in potassium phosphate buffer (10 mM or 100 mM, pH 7.4) in a 1 ml glass cuvette. A buffer baseline was recorded using an OLIS DM-45 spectrofluorometer (1.24 mm slit width) with excitation wavelength of 470 nm and scanning emission spectra from 500 to 600 nm. P450 4A11 (stored in 100 mM potassium phosphate buffer [pH 7.4] containing 20% glycerol) was titrated (0–50 nM) into the Alexa-FABP1 solution. The same experiment was repeated but with the P450 4A11 buffer used as the titrant to normalize the data for any solvent effect. […] As stimulation was observed by the P450 interaction, the value of one was subtracted from the normalized fluorescence values so that the curve would have an (x, y) intercept of (0, 0). Kd values were calculated fitting plots of the normalized fluorescence at emission maximum versus concentration of P450 4A11 using a quadratic equation in GraphPad Prism software.

Row | kon [1] [M⁻¹ s⁻¹] | Molecule | rate of FABP1 lipid transfer to phospholipid membranes [2] [s⁻¹] | Kd [3] [nM]
1 | 42000 ± 6e+07 | CCCCCCCCCCCCCCCC(=O)O [Palmitate (C16), palmitate] |  | 
2 |  | FABP1: delipidated recombinant liver fatty acid binding protein with C-terminal hexahistidine tag | ~0.005 | ~3
